Values quoted from earlier work in patent publication US20120183610A1, “GLUCOCORTICOID THERAPY” (priority 2009, published 2012).

Key:
[1] = dose equivalent to 20 mg hydrocortisone
[2] = 30 to 15 mg daily; after 3 months
[3] = after 2.3 to 6.8 months; mean dose reduced to 20.8±1.0 mg; p<0.01

CC(=O)OCC(=O)[C@@]1(O)CC[C@H]2[C@@H]3CCC4=CC(=O)CC[C@]4(C)[C@H]3C(=O)C[C@@]21C [Cortisone acetate]
Equivalent amount [1]: 25 mg

C[C@]12CCC(=O)C=C1CC[C@@H]1[C@@H]2[C@@H](O)C[C@@]2(C)[C@H]1CC[C@]2(O)C(=O)CO [Hydrocortisone]
body weight and cardiovascular functional variables after dose reduction [2]: no change in body weight or any of the cardiovascular functional variables studied | Equivalent amount [1]: 20 mg | serum concentration of osteocalcin at re-evaluation [3]: 19.9 ng/mL | BMI before dose reduction (11 patients with secondary adrenal insufficiency): 31.5±1.1 kg/m^2 | fasting glucose and insulin levels after dose reduction (dose reduced on average by 50%): unaffected | body weight reduction, on average (dose reduced on average by 50%, 11 patients, follow-up 6-12 months): 7.1 kg | BMI after dose reduction (dose reduced on average by 50%, follow-up 6-12 months): 29.4±1.0 kg/m^2

C[C@@H]1C[C@H]2[C@@H]3C[C@H](F)C4=CC(=O)C=C[C@]4(C)[C@H]3[C@@H](O)C[C@]2(C)[C@@]1(O)C(=O)CO [Paramethasone]
Equivalent amount [1]: 2 mg

C[C@]12C=CC(=O)C=C1CC[C@@H]1[C@@H]2[C@@H](O)C[C@@]2(C)[C@H]1CC[C@]2(O)C(=O)CO [Prednisolone]
Equivalent amount [1]: 5 mg

C[C@]12C=CC(=O)C=C1CC[C@H]1[C@@H]3C[C@@H](O)[C@](O)(C(=O)CO)[C@@]3(C)C[C@H](O)[C@@]12F [Triamcinolone]
Equivalent amount [1]: 4 mg
